From patent publication US11071731B2, “Allosteric modulators of the mu opioid receptor” (Chiromics, LLC, priority 2017, dated 2021)

Experiments:
mu opioid receptor (MOR) [1] = molecular target: T1, mu opioid receptor (MOR) (Homo sapiens, UniProt P35372); experiment: PathHunter β-arrestin recruitment assay, PAM mode with EC20 endomorphin-1; assay type: cell-based; conditions: for allosteric activity for β-arrestin recruitment: EC20 endomorphin-1 concentration of 4.5 nM
Summary of the method: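 Enzyme fragment complementation read-out: β-gal ED fragment fused to receptor, EA fused to β-arrestin, recruitment restoring β-gal activity detected by chemiluminescence. EC50 and percent maximal response derived for each compound.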

mu opioid receptor (MOR) [2] = molecular target: T1, mu opioid receptor (MOR); experiment: Hit Hunter cAMP signaling assay (adenylyl cyclase inhibition), PAM mode with EC20 endomorphin-1; assay type: cell-based; conditions: for allosteric activity for cAMP signaling: EC20 endomorphin-1 concentration of 0.45 nM
[3] = maximal response for β-arrestin recruitment
[4] = β-arrestin recruitment, read-out: β-arr. EC50
[5] = adenylyl cyclase inhibition, read-out: cAMP EC50
[6] = maximal response for adenylyl cyclase inhibition
[7] = maximal response, β-arrestin recruitment
[8] = maximal response, adenylyl cyclase inhibition
[9] = maximal response for β-arrestin recruitment, Table 3
[10] = β-arrestin recruitment, Table 3, read-out: β-arr. EC50
[11] = cAMP EC50 (nM), adenylyl cyclase inhibition, Table 3
[12] = cAMP EC50, adenylyl cyclase inhibition
[13] = maximal response for adenylyl cyclase inhibition, Table 3
[14] = β-arrestin recruitment, activity switching by MOR PAMs
[15] = β-arrestin recruitment, activity switching by MOR PAMs, read-out: β-arrestin EC50
[16] = adenylyl cyclase inhibition, activity switching by MOR PAMs
[17] = adenylyl cyclase inhibition, activity switching by MOR PAMs, read-out: cAMP EC50

T1 sequence (P35372 whole entry, the tested form may be a part): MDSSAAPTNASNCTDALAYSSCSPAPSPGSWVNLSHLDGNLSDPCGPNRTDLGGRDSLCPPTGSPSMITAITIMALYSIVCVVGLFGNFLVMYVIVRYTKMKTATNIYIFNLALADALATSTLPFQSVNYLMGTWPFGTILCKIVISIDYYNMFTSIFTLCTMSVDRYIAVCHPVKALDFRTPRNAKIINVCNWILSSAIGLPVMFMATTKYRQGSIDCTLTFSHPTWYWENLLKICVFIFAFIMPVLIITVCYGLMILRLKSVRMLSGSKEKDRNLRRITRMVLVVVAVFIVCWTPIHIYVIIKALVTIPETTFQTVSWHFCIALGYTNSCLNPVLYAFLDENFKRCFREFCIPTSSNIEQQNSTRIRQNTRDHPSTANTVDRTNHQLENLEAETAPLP

Compound	β-arr Max. Resp. (mu opioid receptor (MOR) [1]; [3])	EC50 (mu opioid receptor (MOR) [1]; [4]) [nM]	EC50 (mu opioid receptor (MOR) [2]; [5]) [nM]	cAMP Max. Resp. (mu opioid receptor (MOR) [2]; [6])	EC50 (mu opioid receptor (MOR) [2]; [12]) [nM]	also measured
O=S(=O)(c1ccc(Cl)cc1)N1C2CCC(C2)C1c1ccc(F)c(Br)c1 (stereo not drawn) [Compound 178]	F (F represents a maximal response of > 60%)	< 700	700 to 2100	D (D represents a maximal response of < 40%)		
O=S(=O)(c1ccc(Cl)cc1)N1C2CCC(C2)C1c1ccc(F)c(Br)c1 (stereo not drawn) [Compound 179]	F (F represents a maximal response of > 60%)	700 to 2100	< 700	D (D represents a maximal response of < 40%)		
O=S(=O)(c1cccc(Cl)c1)N1C2CCC(C2)C1c1ccc(F)c(Br)c1 (stereo not drawn) [Compound 180]	F (F represents a maximal response of > 60%)	> 2100	> 2100	E (E represents a maximal response of 40-60%)		
O=S(=O)(Cc1ccc(Cl)c(Cl)c1)N1C2CCC(C2)C1c1ccc(F)c(Br)c1 (stereo not drawn) [Compound 181]	E (E represents a maximal response of 40-60%)	> 2100	> 2100	D (D represents a maximal response of < 40%)		
O=S(=O)(Cc1ccccc1)N1C2CCC(C2)C1c1ccc(F)c(Br)c1 (stereo not drawn) [Compound 182]	E (E represents a maximal response of 40-60%)	> 2100	> 2100	D (D represents a maximal response of < 40%)		
O=S(=O)(Cc1ccccc1Cl)N1C2CCC(C2)C1c1ccc(F)c(Br)c1 (stereo not drawn) [Compound 183]	E (E represents a maximal response of 40-60%)	> 2100	> 2100	D (D represents a maximal response of < 40%)		
O=S(=O)(c1ccc(Cl)cc1F)N1C2CCC(C2)C1c1ccc(F)c(Br)c1 (stereo not drawn) [Compound 184]	F (F represents a maximal response of > 60%)	> 2100	> 2100	D (D represents a maximal response of < 40%)		
Fc1cnc(Cl)nc1N1CCSCC1c1cccc(C(F)(F)F)c1 (stereo not drawn) [Compound 456]		> 2100	> 2100			β-arr Max. Resp. (mu opioid receptor (MOR) [1]; [7]): F (F represents a maximal response of > 60%); cAMP Max. Resp. (mu opioid receptor (MOR) [2]; [8]): E (E represents a maximal response of 40-60%)
Fc1ccc(C2CSCCN2c2nc(Cl)ncc2F)cc1Cl (stereo not drawn) [Compound 460]		> 2100	> 2100			β-arr Max. Resp. (mu opioid receptor (MOR) [1]; [7]): F (F represents a maximal response of > 60%); cAMP Max. Resp. (mu opioid receptor (MOR) [2]; [8]): F (F represents a maximal response of > 60%)
Fc1ccc(C2CCCCN2Cc2cccc(Cl)n2)cc1Cl (stereo not drawn) [compound 1]	F (F represents a maximal response of > 60%)	< 700		F (F represents a maximal response of > 60%)	< 700	β-arr. Max Resp. (mu opioid receptor (MOR) [1]; [9]): 138; EC50 (mu opioid receptor (MOR) [1]; [10]): 572 nM; EC50 (mu opioid receptor (MOR) [2]; [11]): 186 nM; cAMP Max Resp. (mu opioid receptor (MOR) [2]; [13]): 63
O=S(=O)(c1ccc(Cl)cc1)N1CCCCC1c1cccc(C(F)(F)F)n1 (stereo not drawn) [compound 3]	F (F represents a maximal response of > 60%)	< 700		F (F represents a maximal response of > 60%)	< 700	
Fc1cnc(Cl)nc1N1CCCCC1c1cccc(C(F)(F)F)c1 (stereo not drawn) [compound 7]	F (F represents a maximal response of > 60%)	< 700		F (F represents a maximal response of > 60%)	< 700	
COc1ccc(C2CCCCN2S(=O)(=O)c2ccc(C)cc2)cc1Br (stereo not drawn) [compound 12]	F (F represents a maximal response of > 60%)	> 2100		E (E represents a maximal response of 40-60%)	700 to 2100	
COc1ccc(C2CCCCN2S(=O)(=O)c2ccc(F)cc2)cc1Br (stereo not drawn) [compound 13]	F (F represents a maximal response of > 60%)	> 2100	> 2100	F (F represents a maximal response of > 60%)		
COc1ccc(C2CCCCN2S(=O)(=O)c2ccccc2)cc1Br (stereo not drawn) [compound 14]	F (F represents a maximal response of > 60%)	> 2100		E (E represents a maximal response of 40-60%)	> 2100	allosteric activity for β-arrestin recruitment (mu opioid receptor (MOR) [1]): silent allosteric activity; allosteric activity for β-arrestin recruitment (mu opioid receptor (MOR) [1]; listed as Compound No. 14): dual silent allosteric modulation; β-arr. Max Resp. (mu opioid receptor (MOR) [1]; [9]): 111; EC50 (mu opioid receptor (MOR) [1]; [10]): 13200 nM; allosteric activity for cAMP signaling (mu opioid receptor (MOR) [2]): silent allosteric activity; allosteric activity for cAMP signaling (mu opioid receptor (MOR) [2]; listed as Compound No. 14): dual silent allosteric modulation; EC50 (mu opioid receptor (MOR) [2]; [11]): 9610 nM; cAMP Max Resp. (mu opioid receptor (MOR) [2]; [13]): 43
COc1ccc(C2CCCCN2S(=O)(=O)C2CC2)cc1Br (stereo not drawn) [compound 15]	E (E represents a maximal response of 40-60%)	> 2100		E (E represents a maximal response of 40-60%)	> 2100	
COc1ccc(C2CCCCN2S(C)(=O)=O)cc1Br (stereo not drawn) [compound 16]	D (D represents a maximal response of < 40%)	> 2100		D (D represents a maximal response of < 40%)	> 2100	
COc1ccc(C2CCCCN2S(=O)(=O)c2cccnc2Cl)cc1Br (stereo not drawn) [compound 17]	D (D represents a maximal response of < 40%)	> 2100		D (D represents a maximal response of < 40%)	> 2100	
O=S(=O)(c1ccc(Cl)cc1)N1CCCCC1c1cccc(C(F)(F)F)c1 (stereo not drawn) [compound 18]	F (F represents a maximal response of > 60%)	> 2100	700 to 2100	D (D represents a maximal response of < 40%)		β-arrestin Max Response (mu opioid receptor (MOR) [1]; [14]): F (F represents a maximal response of >60%); EC50 (mu opioid receptor (MOR) [1]; [15]): > 2100 nM; cAMP Max Resp. (mu opioid receptor (MOR) [2]; [16]): D (D represents a maximal response of < 40%); EC50 (mu opioid receptor (MOR) [2]; [17]): > 2100 nM
COc1cc(C2CCCCN2S(=O)(=O)c2ccc(Cl)cc2)ccc1Br (stereo not drawn) [compound 42]	E (E represents a maximal response of 40-60%)	700 to 2100	> 2100	D (D represents a maximal response of < 40%)		
O=S(=O)(c1ccc(Cl)cc1)N1CCCCC1c1ccc(OC(F)(F)F)c(Br)c1 (stereo not drawn) [compound 43]	F (F represents a maximal response of > 60%)	700 to 2100	> 2100	D (D represents a maximal response of < 40%)		
O=S(=O)(c1ccc(Cl)cc1)N1CCCCC1c1ccc2c(c1)OCO2 (stereo not drawn) [compound 44]	F (F represents a maximal response of > 60%)	> 2100	> 2100	E (E represents a maximal response of 40-60%)		allosteric activity for β-arrestin recruitment (mu opioid receptor (MOR) [1]): moderate positive allosteric activity; signaling preference β-arrestin vs cAMP (mu opioid receptor (MOR) [1]; comparison of β-arrestin and cAMP assays): equivalent effects on β-arrestin recruitment and cAMP signaling; β-arr. Max Resp. (mu opioid receptor (MOR) [1]; [9]): 99; EC50 (mu opioid receptor (MOR) [1]; [10]): 5670 nM; allosteric activity for cAMP signaling (mu opioid receptor (MOR) [2]): moderate positive allosteric activity; EC50 (mu opioid receptor (MOR) [2]; adenylyl cyclase inhibition, Table 3, read-out: cAMP EC50): 3740 nM; cAMP Max Resp. (mu opioid receptor (MOR) [2]; [13]): 57
O=S(=O)(c1ccc(Cl)cc1)N1CCCCC1c1cncc(C(F)(F)F)n1 (stereo not drawn) [compound 63]	F (F represents a maximal response of > 60%)	> 2100	> 2100	E (E represents a maximal response of 40-60%)		β-arrestin Max Response (mu opioid receptor (MOR) [1]; [14]): F (F represents a maximal response of >60%); EC50 (mu opioid receptor (MOR) [1]; [15]): > 2100 nM; cAMP Max Resp. (mu opioid receptor (MOR) [2]; [16]): E (E represents a maximal response of 40-60%); EC50 (mu opioid receptor (MOR) [2]; [17]): > 2100 nM
Fc1ccc(C2CCCCN2c2nc(Cl)ncc2F)cc1Cl (stereo not drawn) [compound 121]	F (F represents a maximal response of > 60%)	< 700		E (E represents a maximal response of 40-60%)	< 700	
